What was measured:
Format in all cases: in vivo
[1] = test system: ivyleaf morningglory (Ipomoea hederacea, IPOHE); test: Post-emerge test, greenhouse herbicide activity screening; settings: Ipomoea, post-emergence, 336 h, phytotoxicity rating 0-100 (0 no damage, 100 complete death), 14 days after application, read-out: Post-emerge Herbicidal Activity IPOHE
Outline: (§1)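 Sandy loam pots; pre-emerge: sown 1 d pre-spray, surface-watered after, then bottom-watered. Post-emerge: sown 8–21 d before, 2–3 leaf stage, + 0.25% v/v NIS, bottom-watered. Acetone, 187 l/ha track spray, 15–1000 g ai/ha. 0–100 injury score, day 14.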

[2] = test system: barnyardgrass (Echinochloa crus-galli, ECHCG); test: as above; settings: Echinochloa crus-galli, post-emergence, 336 h, phytotoxicity rating 0-100 (0 no damage, 100 complete death), 14 days after application, read-out: Post-emerge Herbicidal Activity ECHCG
Outline: as §1

[3] = test system: velvetleaf (Abutilon theophrasti, ABUTH); test: as above; settings: Abutilon theophrasti, post-emergence, 336 h, phytotoxicity rating 0-100 (0 no damage, 100 complete death), 14 days after application, read-out: Post-emerge Herbicidal Activity ABUTH
Outline: as §1

[4] = test system: green foxtail (Setaria viridis, SETVI); test: as above; settings: Setaria viridis, post-emergence, 336 h, phytotoxicity rating 0-100 (0 no damage, 100 complete death), 14 days after application, read-out: Post-emerge Herbicidal Activity SETVI
Outline: as §1

[5] = test system: sicklepod (Cassia obtusifolia, CASOB); test: as above; settings: Senna obtusifolia, post-emergence, 336 h, phytotoxicity rating 0-100 (0 no damage, 100 complete death), 14 days after application, read-out: Post-emerge Herbicidal Activity CASOB
Outline: as §1

[6] = test system: johnsongrass (Sorghum halepense, SORHA); test: as above; settings: Sorghum halepense, post-emergence, 336 h, phytotoxicity rating 0-100 (0 no damage, 100 complete death), 14 days after application, read-out: Post-emerge Herbicidal Activity SORHA
Outline: as §1

[7] = test system: ivyleaf morningglory (Ipomoea hederacea, IPOHE); test: Pre-emerge test, greenhouse herbicide activity screening; settings: pre-emerge, rated 14 days after application, 0 = no damage, 100 = complete death
Outline: (§2)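 Compounds in acetone were track-sprayed at 187 l/ha, 15–1000 g ai/ha, onto sandy loam pots. Pre-emerge seeds were sown one day before spraying, with surface watering afterwards. Post-emerge plants were at the 2–3 leaf stage and sprayed with 0.25% v/v non-ionic surfactant. Injury was rated 0–100 at 14 days.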

[8] = test system: barnyardgrass (Echinochloa crus-galli, ECHCG); test: as above; settings: pre-emerge, rated 14 days after application, 0 = no damage, 100 = complete death
Outline: as §2

[9] = test system: velvetleaf (Abutilon theophrasti, ABUTH); test: as above; settings: pre-emerge, rated 14 days after application, 0 = no damage, 100 = complete death
Outline: as §2

[10] = test system: green foxtail (Setaria viridis, SETVI); test: as above; settings: pre-emerge, rated 14 days after application, 0 = no damage, 100 = complete death
Outline: as §2

[11] = test system: lambsquarters (Chenopodium album, CHEAL); test: as above; settings: pre-emerge, rated 14 days after application, 0 = no damage, 100 = complete death
Outline: as §2

[12] = test system: sicklepod (Cassia obtusifolia, CASOB); test: as above; settings: pre-emerge, rated 14 days after application, 0 = no damage, 100 = complete death
Outline: as §2

[13] = test system: johnsongrass (Sorghum halepense, SORHA); test: as above; settings: pre-emerge, rated 14 days after application, 0 = no damage, 100 = complete death
Outline: as §2

[14] = test system: large crabgrass (Digitaria sanguinalis, DIGSA); test: as above; settings: pre-emerge, rated 14 days after application, 0 = no damage, 100 = complete death
Outline: as §2

Cn1c(C(F)(F)F)cc(=O)n(-c2c(F)cc(Cl)c(OC(F)F)c2N)c1=O [Compound 1-38, 3-(2-amino-4-chloro-3-difluoromethoxy-6-fluorophenyl)-1-methyl-6-trifluoromethyl-2,4(1H, 3H)-pyrimidinedione]
100%: pest or weed control at 250 g/ha ([1]; 250 g ai/ha) | pest or weed control at 63 g/ha ([3]; 63 g ai/ha) | pest or weed control at 250 g/ha ([3]; 250 g ai/ha)
80%: pest or weed control at 63 g/ha ([1]; 63 g ai/ha) | pest or weed control at 250 g/ha ([2]; 250 g ai/ha) | pest or weed control at 250 g/ha ([4]; 250 g ai/ha) | pest or weed control at 250 g/ha ([6]; 250 g ai/ha)
90: Pre-emerge Herbicidal Activity SORHA (phytotoxicity rating, scale 0-100) ([13]; 63 g ai/ha)
0%: pest or weed control at 63 g/ha ([2]; 63 g ai/ha) | pest or weed control at 63 g/ha ([6]; 63 g ai/ha)
95: Pre-emerge Herbicidal Activity ECHCG (phytotoxicity rating, scale 0-100) ([8]; 63 g ai/ha)
50%: pest or weed control at 63 g/ha ([5]; 63 g ai/ha)
90%: pest or weed control at 250 g/ha ([5]; 250 g ai/ha)
100: Pre-emerge Herbicidal Activity IPOHE (phytotoxicity rating, scale 0-100) ([7]; 63 g ai/ha) | Pre-emerge Herbicidal Activity IPOHE (phytotoxicity rating, scale 0-100) ([7]; 250 g ai/ha) | Pre-emerge Herbicidal Activity ECHCG (phytotoxicity rating, scale 0-100) ([8]; 250 g ai/ha) | Pre-emerge Herbicidal Activity ABUTH (phytotoxicity rating, scale 0-100) ([9]; 63 g ai/ha) | Pre-emerge Herbicidal Activity ABUTH (phytotoxicity rating, scale 0-100) ([9]; 250 g ai/ha) | Pre-emerge Herbicidal Activity SETVI (phytotoxicity rating, scale 0-100) ([10]; 63 g ai/ha) | Pre-emerge Herbicidal Activity SETVI (phytotoxicity rating, scale 0-100) ([10]; 250 g ai/ha) | Pre-emerge Herbicidal Activity CHEAL (phytotoxicity rating, scale 0-100) ([11]; 63 g ai/ha) | Pre-emerge Herbicidal Activity CHEAL (phytotoxicity rating, scale 0-100) ([11]; 250 g ai/ha) | Pre-emerge Herbicidal Activity CASOB (phytotoxicity rating, scale 0-100) ([12]; 63 g ai/ha) | Pre-emerge Herbicidal Activity CASOB (phytotoxicity rating, scale 0-100) ([12]; 250 g ai/ha) | Pre-emerge Herbicidal Activity SORHA (phytotoxicity rating, scale 0-100) ([13]; 250 g ai/ha) | Pre-emerge Herbicidal Activity DIGSA (phytotoxicity rating, scale 0-100) ([14]; 63 g ai/ha) | Pre-emerge Herbicidal Activity DIGSA (phytotoxicity rating, scale 0-100) ([14]; 250 g ai/ha)
10%: pest or weed control at 63 g/ha ([4]; 63 g ai/ha)
